For test [1], the target named is T1, purified GPIIb/IIIa receptors obtained from human platelets (Homo sapiens, UniProt P05106+P08514).
T1 construct: purified GPIIb/IIIa receptors obtained from human platelets; from tissue; host or cells: human platelets
As to the kind of experiment: purified GPIIb/IIIa-biotinylated fibrinogen ELISA. It is filed as binding. The settings on record: competitive; Michaelis-Menten analysis. The text has this:
(§1) This effect may explain the lyric efficacy of the compounds of the present invention.
For orientation: ELISA stands for enzyme-linked immunosorbent assay.

The test system of test [2] is already formed platelet-rich clot. The conditions noted are these: for lytic effect on already formed platelet-rich clot: varying concentrations. As for the experimental part: Thrombolytic Assay: Venous blood was obtained from the arm of a healthy human donor who was drug-free and aspirin free for at least two weeks prior to blood collection, and placed into 10 ml citrated Vacutainer tubes. The blood was centrifuged for 15 minutes at 1500 ×g at room temperature, and platelet rich plasma (PRP) was removed. To the PRP was then added 1×10^- 3M of the agonist ADP, epinephrine, collagen, arachidonate, serotonin or thrombin, or a mixture thereof, and the PRP incubated for 30 minutes. The PRP was centrifuged for 12 minutes at 2500×g at room temperature. The supernatant was then poured off, and the platelets remaining in the test tube were resuspended in platelet poor plasma (PPP), which served as a plasminogen source. The suspension was then assayed on a Coulter Counter (Coulter Electronics, Inc., Hialeah, Fla.), to determine the platelet count at the zero time point. After obtaining the zero time point, test compounds were added at various concentrations. Test samples were taken at various time points and the platelets were counted using the Coulter Counter. To determine the percent of lysis, the platelet count at a time point subsequent to the addition of the test compound was subtracted from the platelet count at the zero time point, and the resulting number divided by the platelet count at the zero time point. […] For the IC50 evaluation, the test compounds were added at various concentrations, and the percentage of lysis caused by the test compounds was calculated.
Compounds A and B were also tested at varying concentrations using the thrombolytic assay described above (FIG. Ib). […] The clot was formed by incubating platelets with a mixture of agonists (TEAC mixture), which consists of thrombin (0.01 U/ml), epinephrine (250 uM), ADP (250 uM), and collagen (10 ug.ml), for 30 minutes. As a comparison, a linear peptide of sequence arginine-glycine-aspartic acid-serine (RGDS) was also tested in the thrombolytic assay.

In test [3] the target is agonist-induced platelet aggregation (Homo sapiens, UniProt P05106+P08514). In words: Platelet Aggregation Assay. It is filed as cell-based. The conditions noted are these: human PRP; for IC50: agonist-induced aggregation. As for the experimental part:
Blood was collected into 10 ml citrated Vacutainer tubes.

In test [4] the test system is activated human platelets. In words: binding of 3H-labeled Compound A to activated human platelets. The conditions noted are these: Scatchard analysis.
From the text: as §1

For test [5], the target named is T2, platelet GPIIb/IIIa receptor (Homo sapiens, UniProt P05106+P08514).
T2 construct: Human PRP (h-PRP) was applied to a Sepharose column for the purification of platelet fractions; endogenous in cells; host or cells: human gel-purified platelets (h-GPP) from donor platelet-rich plasma
As to the kind of experiment: Platelet-Fibrinogen Binding Assay (125I-fibrinogen, h-GPP). The settings on record: fibrinogen bound 20 minutes before compound. The procedure:
Platelet-Fibrinogen Binding Assay: Binding of ^125 I-fibrinogen to platelets was performed as described by Bennett et al. (1983) Proc. Natl. Acad. Sci. USA 80: 2417-2422, with some modifications as described below. Human PRP (h-PRP) was applied to a Sepharose column for the purification of platelet fractions. Aliquots of platelets (5×10^8 cells) along with 1 mM calcium chloride were added to removable 96 well plates prior to the activation of the human gel purified platelets (h-GPP). Activation of the human gel purified platelets was achieved using ADP, collagen, arachidonate, epinephrine, and/or thrombin in the presence of the ligand, ^125 I-fibrinogen. The ^125 I-fibrinogen bound to the activated, platelets was separated from the free form by centrifugation and then counted on a gamma counter.

Test [6] concerns femoral artery reocclusion. In words: femoral artery reocclusion post-thrombolysis. It is filed as in vivo, canine (male or female mongrel dogs). The procedure:
Effects of Compound A vs saline, when given to anesthetized canine (male or female mongrel dogs) at 1.0 mg/kg I.V., on the incidence of femoral artery reocclusion post-thrombolysis with streptokinase (250-300×1000 IU/kg) or t-PA. […] Data represents mean ±SEM, n=6 in each group.

Test [7] relates to thrombus in the femoral artery. As to the kind of experiment: in vivo thrombolysis, modified Lucchesi model. The settings on record: listed as Compound A. The text has this:
Data represent mean±SEM. n=3-6 in each group.

In test [8] the test system is platelet granular secretion. The conditions noted are these: cited from earlier work.

Here are results for 20 compounds from patent US5635477A, “Cyclic compounds useful as inhibitors of platelet glycoprotein IIB/IIIA” (The DuPont Merck Pharmaceutical Company, priority 1995, dated 1997).

One may read the Ki as the dissociation constant of the complex between target and ligand, obtained from inhibition or displacement. Read a high Ki as a looser hold on the target. One may read the IC50 as the concentration that gives 50% inhibition. Higher therefore signals lower potency. What is called Kd is the concentration at which binding is half-saturated. A higher Kd goes with a looser complex.

“Also recorded” adds a separate entry of the source. Like-named read-outs stand apart in the source and are kept apart here. Starred links: 1 amine or outer side, 2 acyl side, 3 side chain; linkers in the order of their positions; H or OH if unused. Non-standard residues stand in square brackets, D forms with d. Residues, ends and D or L forms follow the SMILES beside them. X5 = O=C(c1ccc(I)c(CN[*:1])c1)[*:2]; X4 = O=C(c1cc(CN[*:1])ccc1Cl)[*:2]; NMeOrn(Me) = CNCCC[C@H](NC)C(=O)O; NMeR = CN[C@@H](CCCNC(=N)N)C(=O)O; X3 = Cc1ccc(CN[*:1])cc1C(=O)[*:2]; X8 = O=C(c1cc(CN[*:1])ccc1I)[*:2]; 3Amb = NCc1cccc(C(=O)O)c1; dAbu = CC[C@@H](N)C(=O)O; βAla = NCCC(=O)O

Sequence of agonist-induced platelet aggregation (P08514 32-1039): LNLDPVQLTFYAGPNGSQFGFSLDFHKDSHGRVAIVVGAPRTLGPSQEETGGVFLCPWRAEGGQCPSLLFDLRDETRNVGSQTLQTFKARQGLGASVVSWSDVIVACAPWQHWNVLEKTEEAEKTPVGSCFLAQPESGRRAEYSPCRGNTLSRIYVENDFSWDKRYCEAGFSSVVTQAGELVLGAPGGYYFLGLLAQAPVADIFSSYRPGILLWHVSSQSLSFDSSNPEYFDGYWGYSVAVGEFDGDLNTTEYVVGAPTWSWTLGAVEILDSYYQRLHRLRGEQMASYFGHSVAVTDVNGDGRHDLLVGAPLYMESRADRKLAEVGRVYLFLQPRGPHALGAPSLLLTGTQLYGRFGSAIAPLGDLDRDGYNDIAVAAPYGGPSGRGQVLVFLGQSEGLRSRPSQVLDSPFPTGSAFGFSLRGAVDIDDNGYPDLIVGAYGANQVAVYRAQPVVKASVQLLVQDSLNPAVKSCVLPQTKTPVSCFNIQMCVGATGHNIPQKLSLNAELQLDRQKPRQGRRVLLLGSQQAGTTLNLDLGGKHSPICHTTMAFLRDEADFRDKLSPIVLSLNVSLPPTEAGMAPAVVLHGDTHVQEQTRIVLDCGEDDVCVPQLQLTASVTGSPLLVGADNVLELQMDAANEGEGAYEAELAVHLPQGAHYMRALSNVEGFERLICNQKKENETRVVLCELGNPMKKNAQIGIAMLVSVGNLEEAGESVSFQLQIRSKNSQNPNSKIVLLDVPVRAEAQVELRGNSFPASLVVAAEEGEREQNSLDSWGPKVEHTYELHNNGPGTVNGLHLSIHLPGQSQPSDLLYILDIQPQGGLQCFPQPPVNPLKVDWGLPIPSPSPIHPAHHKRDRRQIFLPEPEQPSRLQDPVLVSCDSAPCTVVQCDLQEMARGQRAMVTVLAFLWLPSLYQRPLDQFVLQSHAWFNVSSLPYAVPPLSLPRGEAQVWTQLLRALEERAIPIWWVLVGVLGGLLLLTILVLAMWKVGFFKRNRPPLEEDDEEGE
Sequence of agonist-induced platelet aggregation (P05106 27-788): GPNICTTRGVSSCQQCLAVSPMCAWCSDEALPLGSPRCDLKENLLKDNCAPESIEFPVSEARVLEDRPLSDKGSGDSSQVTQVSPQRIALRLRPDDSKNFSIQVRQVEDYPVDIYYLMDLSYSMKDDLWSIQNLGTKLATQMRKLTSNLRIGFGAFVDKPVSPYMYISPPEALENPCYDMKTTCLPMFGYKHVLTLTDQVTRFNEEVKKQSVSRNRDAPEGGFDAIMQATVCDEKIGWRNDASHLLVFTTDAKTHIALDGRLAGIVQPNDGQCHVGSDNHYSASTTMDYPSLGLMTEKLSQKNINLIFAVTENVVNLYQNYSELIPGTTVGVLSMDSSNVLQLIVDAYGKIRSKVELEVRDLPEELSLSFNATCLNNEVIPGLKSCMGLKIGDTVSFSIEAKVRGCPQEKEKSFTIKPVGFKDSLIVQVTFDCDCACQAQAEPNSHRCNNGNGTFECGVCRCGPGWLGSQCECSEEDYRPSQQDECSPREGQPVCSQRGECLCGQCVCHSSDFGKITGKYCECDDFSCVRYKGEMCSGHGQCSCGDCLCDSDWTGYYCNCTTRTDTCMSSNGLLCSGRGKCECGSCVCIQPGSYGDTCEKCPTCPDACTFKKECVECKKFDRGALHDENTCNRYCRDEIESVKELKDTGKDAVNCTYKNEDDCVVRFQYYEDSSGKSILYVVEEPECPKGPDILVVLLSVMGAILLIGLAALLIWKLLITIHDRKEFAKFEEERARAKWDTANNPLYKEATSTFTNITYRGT
T2 sequence (P08514 32-887 limits assumed): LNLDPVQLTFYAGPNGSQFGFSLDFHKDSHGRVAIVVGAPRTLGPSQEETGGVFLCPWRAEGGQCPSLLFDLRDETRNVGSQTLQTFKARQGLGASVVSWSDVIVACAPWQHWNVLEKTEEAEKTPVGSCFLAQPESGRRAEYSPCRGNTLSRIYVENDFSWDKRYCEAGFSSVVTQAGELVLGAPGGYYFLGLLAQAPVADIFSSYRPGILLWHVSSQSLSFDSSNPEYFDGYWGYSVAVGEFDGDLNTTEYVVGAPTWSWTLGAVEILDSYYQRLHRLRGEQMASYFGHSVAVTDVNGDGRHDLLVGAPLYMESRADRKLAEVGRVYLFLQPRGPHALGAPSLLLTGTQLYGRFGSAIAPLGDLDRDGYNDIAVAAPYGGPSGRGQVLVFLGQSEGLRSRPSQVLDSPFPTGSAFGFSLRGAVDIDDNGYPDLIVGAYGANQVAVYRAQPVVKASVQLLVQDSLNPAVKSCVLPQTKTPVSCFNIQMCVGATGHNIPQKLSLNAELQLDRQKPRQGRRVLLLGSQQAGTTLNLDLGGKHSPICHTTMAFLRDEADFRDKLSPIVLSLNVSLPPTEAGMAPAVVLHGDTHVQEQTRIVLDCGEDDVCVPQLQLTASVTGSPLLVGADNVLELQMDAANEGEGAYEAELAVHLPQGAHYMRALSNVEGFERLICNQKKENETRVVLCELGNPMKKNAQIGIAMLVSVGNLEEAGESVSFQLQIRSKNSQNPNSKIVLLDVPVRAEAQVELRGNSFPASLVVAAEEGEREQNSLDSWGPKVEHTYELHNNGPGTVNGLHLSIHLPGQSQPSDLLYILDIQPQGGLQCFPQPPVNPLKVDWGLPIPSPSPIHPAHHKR
T2 sequence (P08514 891-1039 partner limits assumed): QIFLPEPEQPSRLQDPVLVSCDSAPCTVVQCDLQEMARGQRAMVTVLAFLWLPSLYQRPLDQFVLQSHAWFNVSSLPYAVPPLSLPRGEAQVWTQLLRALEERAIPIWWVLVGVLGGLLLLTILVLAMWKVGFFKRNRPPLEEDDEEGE
T2 sequence (P05106 27-788): as the sequence (P05106 27-788) above
T1 sequence (P08514 32-887 limits assumed): as the sequence (P08514 32-887 limits assumed) above
T1 sequence (P08514 891-1039 partner limits assumed): as the sequence (P08514 891-1039 partner limits assumed) above
T1 sequence (P05106 27-788): as the sequence (P05106 27-788) above

Turning to `CC[C@H]1NC(=O)c2cccc(c2)CNC(=O)[C@H](CC(=O)O)NC(=O)CNC(=O)[C@H](CCCN=C(N)N)N(C)C1=O` [Example 3, cyclo-(D-Abu-NMeArg-Gly-Asp-Mamb)] (cyclo([NMeR]GD[3Amb][dAbu])), the Ki in test [1] is 0.0004 µM.
In test [2] (0.001 mM, platelet stimulation 1x10^-3 M ADP), `CC[C@H]1NC(=O)c2cccc(c2)CNC(=O)[C@H](CC(=O)O)NC(=O)CNC(=O)[C@H](CCCNC(=N)N)N(C)C1=O` [Example 3, cyclo-(D-Abu-NMeArg-Gly-Asp-Mamb)] (cyclo([NMeR]GD[3Amb][dAbu])) registered a lysis percentage of no less than 70%. Besides, the “lytic effect on already formed platelet-rich clot” value in test [2] (listed as A) is “significant lyric efficacy of pre-formed platelet rich-clot”; in test [2] (listed as Compound A) it was “significant lytic effect on the clot”. For the same compound, the deaggregation of platelets entry in test [3] (added after initiation of aggregation) was “deaggregate platelets after the initiation of aggregation”. This compound also displayed an IC50 in test [3] of less than 1 µM. In addition, binding in test [4] was put at a Kd of 0.0001 µM. The “displacement of 125I-fibrinogen bound to activated platelets” value in test [5] is listed as “displace ^125 I-fibrinogen bound to activated platelets”. Also, the period without reocclusion in test [6] (1.0 mg/kg I.V., post-thrombolysis) is greater than 240 min. In test [6] (1.0 mg/kg I.V., post-thrombolysis with streptokinase or t-PA), this compound yielded a prevention of reocclusion of 100%. The “reocclusion following SK or t-PA thrombolysis” value in test [6] (dog, in vivo) is listed as “virtually no reocclusion”. In test [7] (1 mg/kg I.V. plus sub-optimum streptokinase (75 KU)), the “in vivo thrombolytic efficacy with streptokinase” value is “significant synergistic effect in fully lysing the thrombus; also recorded: increase in in vivo thrombolytic efficacy while allowing a significantly lower dose of streptokinase”. For the same compound, in test [7] (1 mg/kg I.V.), the “in vivo thrombolytic efficacy alone” value is “significant lysis of an already formed thrombus in the femoral artery; also recorded: good in vivo thrombolytic efficacy”.
Turning to `CC(C)[C@H]1NC(=O)c2cccc(c2)CNC(=O)[C@H](CC(=O)O)NC(=O)CNC(=O)[C@H](CCCNC(=N)N)N(C)C1=O` [Example 4, cyclo-(D-Val-NMeArg-Gly-Asp-Mamb)], the half-maximal inhibitory concentration (IC50) in test [2] was 0.5 to 1 µM; in test [3], less than 1 µM. The “thrombolytic effect in combination with tPA, urokinase or streptokinase” value in test [2] (in vitro, pre-formed platelet-rich clot) is “significantly better than the additive effects of both agents”. The “lytic effect on already formed platelet-rich clot” value is reported as “significant lyric efficacy of pre-formed platelet rich-clot” in test [2] (listed as B) and “significant lytic effect on the clot” in test [2] (listed as Compound B).
For the compound `CC(C)[C@H]1NC(=O)c2cccc(c2)CNC(=O)[C@H](CC(=O)O)NC(=O)CCNC(=O)[C@H](CCCNC(=N)N)N(C)C1=O` [Example 54, cyclo-(D-Val-NMeArg-b-Ala-Asp-Mamb)] (cyclo([3Amb][dV][NMeR][βAla]D)), the IC50 in test [3] lay within 1 to 10 µM.
`CC(C)[C@H]1NC(=O)c2cccc(c2)CNC(=O)[C@H](CC(=O)O)NC(=O)[C@H](C)NC(=O)[C@H](CCCNC(=N)N)N(C)C1=O` [Example 58c, cyclo-(D-Val-NMeArg-L-Ala-Asp-Mamb)] (cyclo([3Amb][dV][NMeR]AD)) registered a concentration for half-maximal inhibition (IC50) in test [3] of 10 to 100 µM.
`CC(C)[C@H]1NC(=O)c2cccc(c2)CNC(=O)[C@H](CC(=O)O)N(C)C(=O)CNC(=O)[C@H](CCCNC(=N)N)N(C)C1=O` [Example 64b, cyclo-(D-Val-NMeArg-Gly-NMeAsp-Mamb)]: the half-maximal inhibitory concentration (IC50) in test [3] was in the range of 1 to 10 µM.
Still for that read-out and setting: as for `CC(C)[C@H]1NC(=O)c2cccc(c2)CNC(=O)[C@@H](CC(=O)O)NC(=O)CNC(=O)[C@H](CCCNC(=N)N)N(C)C1=O` [Example 64c, cyclo-(D-Val-NMeArg-Gly-D-Asp-Mamb)], the figure is 1 to 10 µM.
`CC(C)[C@H]1NC(=O)c2ccc3cccc(c3c2)CNC(=O)[C@H](CC(=O)O)NC(=O)CNC(=O)[C@H](CCCNC(=N)N)N(C)C1=O` [Example 89c, cyclo-(D-Val-NMeArg-Gly-Asp-aminomethylnaphthoic acid)] gave an IC50 in test [3] of 1 to 10 µM.
In test [3], `CC[C@H]1NC(=O)c2ccc(I)c(c2)CNC(=O)[C@H](CC(=O)O)NC(=O)CNC(=O)[C@H](CCCNC(=N)N)N(C)C1=O` [Example 89d, cyclo-(D-Abu-NMeArg-Gly-Asp-iodo-Mamb)] (cyclo([NMeR]GD[X5][dAbu])) displayed an IC50 of less than 1 µM.
On the same count and under the same terms, as for `CC[C@H]1NC(=O)c2cccc(c2)CNC(=O)[C@H](CC(=O)O)NC(=O)CNC(=O)[C@H](CCCNC)N(C)C1=O` [Example 89e, cyclo-(D-Abu-di-NMeOrn-Gly-Asp-Mamb)] (cyclo([dAbu][NMeOrn(Me)]GD[3Amb])), the figure is 1 to 10 µM.
The same measure, in the same setting: then `CC(C)[C@H]1NC(=O)c2ccccc2CNC(=O)[C@H](CC(=O)O)NC(=O)CNC(=O)[C@H](CCCNC(=N)N)N(C)C1=O` [Example 91, cyclo-(D-Val-NMeArg-Gly-Asp-2-aminomethylbenzoic acid)], with less than 1 µM.
The same measure, in the same setting: then `CC(C)[C@H]1NC(=O)Cc2cccc(c2)NC(=O)[C@H](CC(=O)O)NC(=O)CNC(=O)[C@H](CCCNC(=N)N)N(C)C1=O` [Example 92, cyclo-(D-Val-NMeArg-Gly-Asp-3-aminophenylacetic acid)], with less than 1 µM; and `CC(C)[C@H]1NC(=O)c2ccc(Cl)c(c2)CNC(=O)[C@H](CC(=O)O)NC(=O)CNC(=O)[C@H](CCCNC(=N)N)N(C)C1=O` [Example 93, cyclo-(D-Val-NMeArg-Gly-Asp-3-aminomethyl-4-chlorobenzoic acid)], with less than 1 µM; and `CC(C)[C@H]1NC(=O)c2ccc(I)c(c2)CNC(=O)[C@H](CC(=O)O)NC(=O)CNC(=O)[C@H](CCCNC(=N)N)N(C)C1=O` [Example 94, cyclo-(D-Val-NMeArg-Gly-Asp-iodo-Mamb)], with less than 1 µM.
`CC(C)[C@H]1NC(=O)c2cc(ccc2Cl)CNC(=O)[C@H](CC(=O)O)NC(=O)CNC(=O)[C@H](CCCNC(=N)N)N(C)C1=O` [Example 97, cyclo-(D-Val-NMeArg-Gly-Asp-3-aminomethyl-6-chlorobenzoic acid)]: the IC50 in test [3] is less than 1 µM.
Same read-out and setting: then `CC[C@H]1NC(=O)c2cc(ccc2Cl)CNC(=O)[C@H](CC(=O)O)NC(=O)CNC(=O)[C@H](CCCNC(=N)N)N(C)C1=O` [Example 100a, cyclo-(D-Abu-NMeArg-Gly-Asp-3-aminomethyl-6-chlorobenzoic acid)] (cyclo([NMeR]GD[X4][dAbu])), with less than 1 µM.
The same measure, in the same setting: as for `CC[C@H]1NC(=O)c2cc(ccc2I)CNC(=O)[C@H](CC(=O)O)NC(=O)CNC(=O)[C@H](CCCNC(=N)N)N(C)C1=O` [Example 100b, cyclo-(D-Abu-NMeArg-Gly-Asp-3-aminomethyl-6-iodobenzoic acid)] (cyclo([NMeR]GD[X8][dAbu])), the figure is less than 1 µM; as for `CC[C@H]1NC(=O)c2cc(ccc2C)CNC(=O)[C@H](CC(=O)O)NC(=O)CNC(=O)[C@H](CCCNC(=N)N)N(C)C1=O` [Example 100c, cyclo-(D-Abu-NMeArg-Gly-Asp-3-aminomethyl-6-methylbenzoic acid)] (cyclo([NMeR]GD[X3][dAbu])), less than 1 µM.
As for `CC(=O)Oc1ccccc1C(=O)O` [aspirin, acetylsalicyclic acid, reference compound], the “effect on platelet granular secretion (PAI-1, serotonin)” value in test [8] is reported as “inhibit platelet granular secretion”.
For the compound hirudin, in test [8], the “effect on platelet granular secretion (PAI-1, serotonin)” value was “inhibit platelet granular secretion”.
